# From US20240327463A1, “ANTIBACTERIAL PRODUCTS” (priority 2017, published 2024)
# Bridge positions count the residues as written; N and C are the ends. Square brackets hold non-standard residues; d marks the D form. Peptide text beside a SMILES is read from it. ξ: configuration not given here. dNMeF = CN[C@H](Cc1ccccc1)C(=O)O; Ile(3ξ) = CCC(C)[C@H](N)C(=O)O
# How the values were obtained:
# MRSA ATCC 700699 = assay: microbe, parasite or virus in culture; conditions: ATCC 700699
# Description: (§1) For MIC testing all peptides were dissolved in DMSO (according to the method of L. L. Ling, et al., Nature 2015, 517, 455-459). Bacteria were grown on Mueller Hinton broth (oxoid). All incubations were at 37° C. Dilutions were carried out using Mueller Hinton. 100 μl of autoclaved Mueller Hinton broth was added to wells 2-12 on a 96-well plate. 200 μl of the peptide was added to well one at a concentration of 512 μg/ml. 100 μl of peptide in well one was taken up and pipetted into well two. The mixture was then mixed via pipetting before 100 μl was taken up and pipetted into well three. This process was repeated up to well 11. […] This was repeated three times. The 96-well plates were then incubated for 24 hours. The MIC was determined to be the lowest concentration at which there was no growth visible.
# VRE ATCC 700802 = assay: microbe, parasite or virus in culture; conditions: ATCC 700802
# Description: as §1
# MRSA DR 42412 (sputum) = assay: microbe, parasite or virus in culture; conditions: DR 42412 (sputum)
# Description: as §1
# [1] = system: Staphylococcus aureus ATCC 29213; assay: microbe, parasite or virus in culture; conditions: ATCC 29213
# Description: as §1
# M. smegmatis ATCC 607 = assay: microbe, parasite or virus in culture; conditions: ATCC 607
# Description: as §1
# MRSA DM21455 (eye) = assay: microbe, parasite or virus in culture; conditions: DM21455 (eye)
# Description: as §1
# VRE ATCC 29212 = assay: microbe, parasite or virus in culture; conditions: ATCC 29212
# Description: as §1
# MRSA ATCC 33591 = system: MRSA ATCC 33591
# Description: as §1
# [2] = system: Staphylococcus saprophyticus ATCC BAA 750; assay type: cell-based; conditions: ATCC BAA 750
# Description: (§2) Bacteria were grown on Mueller Hinton broth (oxoid). All incubations were at 37° C. Dilutions were carried out using Mueller Hinton. […] This process was repeated up to well 11. […] This was repeated three times. […] Results are tabulated in the Examples.
# [3] = system: Bacillus Cereus ATCC 11788; assay type: cell-based
# Description: as §2
# [4] = system: Staphylococcus saprophyticus ATCC 49453; assay type: cell-based; conditions: ATCC 49453
# Description: as §2
# [5] = system: Bacillus Subtilis ATCC 6633; assay type: cell-based
# Description: as §2
# [6] = system: Staphylococcus saprophyticus ATCC 15305; assay type: cell-based; conditions: ATCC 15305
# Description: as §2
# SE12228 = assay type: cell-based
# Description: as §2
# [7] = system: Staphylococcus saprophyticus ATCC 49907; assay type: cell-based; conditions: ATCC 49907
# Description: as §2
# MRSA 1003 = assay type: cell-based, Staphylococcus aureus
# Description: as §2
# VRE 1004 = assay type: cell-based, Enterococcus faecalis
# Description: as §2
# VRE 1001 = assay type: cell-based, Enterococcus faecalis
# Description: as §2
# VRE 1008 = assay type: cell-based, Enterococcus faecalis
# Description: as §2
# VRE 1002 = assay type: cell-based, Enterococcus faecalis
# Description: as §2
# S. aureus ATCC 29213 = assay: Mice-eye model of S. aureus keratitis; assay type: in vivo; conditions: for mean corneal thickness: 0.3% topical, baseline 93.8±2.9 μm
# Source text: The in vivo efficacy of Compound 26 in the mice-eye model of S. aureus keratitis was examined. S. aureus is one of the major etiological agents for bacterial keratitis and the toxic secretions produced by this microorganism have been implicated in corneal melt, leading to significant morbidity and vision loss. […] A total of 8 doses were applied and the progression of the infection was monitored by slit lamp examination, anterior segment optical coherent tomography (AS-OCT) and microbiological enumeration of the bacterial bioburden. Mice cornea treated with PBS had severe clinical presentation indicated by chemosis, significant presence of hypopyon like materials and corneal infiltrates (FIG. 4).
Structure (SMILES),MIC (MRSA ATCC 700699) [µg/mL],MIC (VRE ATCC 700802) [µg/mL],MIC (MRSA DR 42412 (sputum)) [µg/mL],MIC [1] [µg/mL],MIC (MRSA DM21455 (eye)) [µg/mL],MIC (VRE ATCC 29212) [µg/mL],MIC [2] [µg/mL],MIC [3] [µg/mL],MIC [4] [µg/mL],MIC [5] [µg/mL],MIC [6] [µg/mL],MIC (SE12228) [µg/mL],MIC [7] [µg/mL],MIC (MRSA 1003) [µg/mL],MIC (VRE 1004) [µg/mL],MIC (VRE 1001) [µg/mL],MIC (VRE 1008) [µg/mL],MIC (VRE 1002) [µg/mL],MIC (MRSA) (MRSA ATCC 33591; ATCC 33591) [µg/mL],also measured
"CC[C@@H](C)[C@@H](NC(=O)[C@@H](CCC(N)=O)NC(=O)[C@H](CO)NC(=O)[C@@H](NC(=O)[C@@H](Cc1ccccc1)NC)[C@@H](C)CC)C(=O)N[C@H](C(=O)N[C@@H](CO)C(=O)N[C@H]1C(=O)N[C@@H](C)C(=O)N[C@@H](CC(C)C)C(=O)N[C@@H]([C@@H](C)CC)C(=O)O[C@H]1C)[C@@H](C)CC [Compound 19, Leu10-teixobactin]",0.25,0.25,≤0.0625,≤0.0625,≤0.0625,0.25,–,–,–,–,–,–,–,–,–,–,–,–,–,MBC (MRSA ATCC 700699): 2 µg/mL; MBC (MRSA DR 42412 (sputum)): ≤0.0625 µg/mL; MBC [1]: 0.125 µg/mL; MIC (M. smegmatis ATCC 607): 1 µg/mL; MBC (MRSA DM21455 (eye)): ≤0.0625 µg/mL; MIC (MRSA*) (MRSA ATCC 33591; ATCC 33591): 0.25 µg/mL
"CC[C@@H](C)[C@@H](NC(=O)[C@@H](CCC(N)=O)NC(=O)[C@H](CCCNC(=N)N)NC(=O)[C@@H](NC(=O)[C@@H](Cc1ccccc1)NC)[C@@H](C)CC)C(=O)N[C@H](C(=O)N[C@@H](CO)C(=O)N[C@H]1C(=O)N[C@@H](C)C(=O)N[C@@H](CC(C)C)C(=O)N[C@@H]([C@@H](C)CC)C(=O)O[C@H]1C)[C@@H](C)CC [Compound 25, Arg3-Leu10-teixobactin] (H-[dNMeF]IR[dQ][dI]IS[dT]ALI; ester 8-C)",0.5,0.5,<0.0625,0.25,0.03125,0.5,<0.0625,<0.0625,<0.0625,<0.0625,<0.0625,<0.0625,<0.0625,<0.0625,<0.0625,0.25,0.125,0.5,0.125,–
"CCC(C)[C@@H]1NC(=O)[C@H](C)NC(=O)[C@H](NC(=O)[C@H](CO)NC(=O)[C@@H](NC(=O)[C@H](NC(=O)[C@@H](CCCNC(=N)N)NC(=O)[C@H](CO)NC(=O)[C@@H](NC(=O)[C@@H](Cc2ccccc2)NC)[C@@H](C)CC)[C@H](C)CC)[C@@H](C)CC)[C@H](C)OC(=O)[C@H]([C@@H](C)CC)NC1=O (stereo partly drawn) [Compound 33, D-Arg4-Ile10-teixobactin]",0.25,0.25,<0.0625,0.0625,0.03125,0.25,<0.0625,<0.0625,<0.0625,<0.0625,<0.0625,<0.0625,<0.0625,<0.0625,0.5,0.5,0.5,1,0.125,–
"CCC(C)[C@@H]1NC(=O)[C@H](C)NC(=O)[C@H](NC(=O)[C@H](CO)NC(=O)[C@@H](NC(=O)[C@H](NC(=O)[C@@H](CCC(N)=O)NC(=O)[C@H](CCCNC(=N)N)NC(=O)[C@@H](NC(=O)[C@@H](Cc2ccccc2)NC)[C@@H](C)CC)[C@H](C)CC)[C@@H](C)CC)[C@H](C)OC(=O)[C@H]([C@@H](C)CC)NC1=O (stereo partly drawn) [Compound 32, Arg3-Ile10-teixobactin] (H-[dNMeF]IR[dQ][dI]IS[dT]A[Ile(3ξ)]I; ester 8-C)",1,1,0.125,0.5,0.25,1,<0.0625,0.125,<0.0625,<0.0625,<0.0625,<0.0625,<0.0625,0.125,1,1,1,1,0.25,–
"CCCCCCCCCC(=O)N[C@@H](Cc1c[nH]c2ccccc12)C(=O)N[C@H](CC(N)=O)C(=O)N[C@@H](CC(=O)O)C(=O)N[C@@H]1C(=O)NCC(=O)N[C@@H](CCCN)C(=O)N[C@@H](CC(=O)O)C(=O)N[C@H](C)C(=O)N[C@@H](CC(=O)O)C(=O)NCC(=O)N[C@H](CO)C(=O)N[C@@H]([C@H](C)CC(=O)O)C(=O)N[C@@H](CC(=O)c2ccccc2N)C(=O)O[C@@H]1C [Daptomycin, reference compound]",0.25,0.25,<0.0625,–,<0.0625,0.25,–,–,–,–,–,–,–,–,–,–,–,–,–,–
"COc1c(N2C[C@@H]3CCCN[C@@H]3C2)c(F)cc2c(=O)c(C(=O)O)cn(C3CC3)c12 [moxifloxacin, reference compound]",–,–,–,–,–,–,–,–,–,–,–,–,–,–,–,–,–,–,–,"mean corneal thickness (S. aureus ATCC 29213; 24 h post treatment): 124.2±9.4 μm; mean corneal thickness (S. aureus ATCC 29213; 48 h post treatment): 140.3±10.3 μm; mean log10 CFU/tissue (S. aureus ATCC 29213; corneal tissues harvested after 8 dosages, ± standard error of the mean): 3.7±0.24 log10 CFU/tissue"
"CC[C@@H](C)[C@@H](NC(=O)[C@@H](CCC(N)=O)NC(=O)[C@H](CCCNC(=N)N)NC(=O)[C@@H](NC(=O)[C@@H](Cc1ccccc1)NC)[C@@H](C)CC)C(=O)N[C@H](C(=O)N[C@@H](CO)C(=O)N[C@H]1C(=O)N[C@@H](CCCNC(=N)N)C(=O)N[C@@H](CC(C)C)C(=O)N[C@@H]([C@@H](C)CC)C(=O)O[C@H]1C)[C@@H](C)CC [Compound 29, Arg3-Arg9-Leu10-teixobactin] (H-[dNMeF]IR[dQ][dI]IS[dT]RLI; ester 8-C)",1,1,0.25,1,1,1,<0.0625,1,<0.0625,<0.0625,<0.0625,<0.0625,<0.0625,2,0.5,0.5,0.5,1,–,MIC against MRSA ATCC 33591 (MRSA ATCC 33591; MRSA ATCC 33591): 1 µg/mL
